Results published in US9995734B2, “Human T cell line assay for evaluating the immunologic identity of glatiramer acetate preparations” (Mylan Inc., priority 2013, dated 2018).
Several values for one entry are separate records, joined by “and”; a condition that tells them apart may be missing. Equal entries are not always repeated.

What was measured:
Format in all cases: cell-based, human
Donor 3 GMA T-Cell Lines = experiment: ATP proliferation assay (CellTiter Glo), Donor 3 GMA T-cell lines, incl. reactivity to non-canonical GA peptides; settings: T-cell line 165-H11G
Donor 3 COP T-Cell Lines = experiment: ATP proliferation assay (CellTiter Glo), Donor 3 COP T-cell lines, incl. reactivity to non-canonical GA peptides; settings: for Non-Canonical Peptide Non-Reactivity: proliferation <2 times no antigen control
Donor 4 COP T-Cell Lines = experiment: ATP proliferation assay (CellTiter Glo), Donor 4 COP T-cell lines, incl. reactivity to non-canonical GA peptides; settings: for Non-Canonical Peptide Non-Reactivity: proliferation <2 times no antigen control; for Proliferation (luminescent ATP assay), Mean: T-cell line 205-1F4, Day 71, autologous B-LCL

Q: For poly (Glu-Lys-Tyr; 6:3:1) [GLT 631], which “Proliferation (luminescent ATP assay), Mean” value (Donor 3 GMA T-Cell Lines; 1 μg/mL antigen, Day 50 of culturing, No Antigen Value 1485) is on record?
A: 2763 RLU

Q: And the “Proliferation (luminescent ATP assay), Mean” value (Donor 3 GMA T-Cell Lines; 1.25 μg/mL antigen, autologous B-LCL)?
A: 29 RLU

Q: And the “Proliferation (luminescent ATP assay), Mean” value (Donor 3 GMA T-Cell Lines; 2.5 μg/mL antigen, autologous B-LCL)?
A: 344 RLU

Q: What about the “Proliferation (luminescent ATP assay), Mean” value (Donor 3 GMA T-Cell Lines; 3 μg/mL antigen, Day 50 of culturing, No Antigen Value 1485) of the same substance?
A: 2875 RLU

Q: What about the “Proliferation (luminescent ATP assay), Mean” value (Donor 3 GMA T-Cell Lines; 5 μg/mL antigen, autologous B-LCL) of the same substance?
A: 448 RLU

Q: And the “Proliferation (luminescent ATP assay), Mean” value (Donor 3 GMA T-Cell Lines; 10 μg/mL antigen, Day 50 of culturing, No Antigen Value 1485)?
A: 3028 RLU

Q: What about the “Proliferation (luminescent ATP assay), Mean” value (Donor 3 GMA T-Cell Lines; 10 μg/mL antigen, autologous B-LCL) of the same substance?
A: 435 RLU

Q: And the “Proliferation (luminescent ATP assay), Mean” value (Donor 3 GMA T-Cell Lines; 30 μg/mL antigen, Day 50 of culturing, No Antigen Value 1485)?
A: 3093 RLU

Q: And the “Non-Canonical Peptide Non-Reactivity” value (Donor 3 COP T-Cell Lines; 165-B6C)?
A: GLT 631

Q: And the “Non-Canonical Peptide Non-Reactivity” value (Donor 3 COP T-Cell Lines; 165-C4C)?
A: GLT 631

Q: What about the “Non-Canonical Peptide Non-Reactivity” value (Donor 3 COP T-Cell Lines; 165-C7C) of the same substance?
A: GLT 631

Q: And the “proliferation response to non-canonical peptides” value (Donor 3 COP T-Cell Lines; 165-E3C, separate experiment)?
A: did not react

Q: What about the “Non-Canonical Peptide Non-Reactivity” value (Donor 3 COP T-Cell Lines; 165-F3C) of the same substance?
A: GLT 631

Q: What about the “Non-Canonical Peptide Non-Reactivity” value (Donor 3 COP T-Cell Lines; 165-F6C) of the same substance?
A: GLT 631

Q: What about the “Non-Canonical Peptide Non-Reactivity” value (Donor 3 COP T-Cell Lines; 165-U3C (so in the source)) of the same substance?
A: GLT 631

Q: What about the “Nonreactive T-Cell Line” value (Donor 3 COP T-Cell Lines; Donor 3 COP lines, stimulation with the non-canonical GA peptide) of the same substance?
A: 165-B6C (Donor 3) and 165-C4C (Donor 3) and 165-C7C (Donor 3) and 165-E3C (Donor 3) and 165-F3C (Donor 3) and 165-F6C (Donor 3)

Q: What about the “Proliferation (luminescent ATP assay), Mean” value (Donor 3 COP T-Cell Lines; T-cell line 165-C4C, 1 μg/mL antigen, Day 66 of culture, 0 μg/mL 1881) of the same substance?
A: 2465

Q: And the “Proliferation (luminescent ATP assay), Mean” value (Donor 3 COP T-Cell Lines; T-cell line 165-C4C, 3 μg/mL antigen, Day 66 of culture, 0 μg/mL 1881)?
A: 2677

Q: And the “Proliferation (luminescent ATP assay), Mean” value (Donor 3 COP T-Cell Lines; T-cell line 165-C4C, 10 μg/mL antigen, Day 66 of culture, 0 μg/mL 1881)?
A: 2939

Q: And the “Proliferation (luminescent ATP assay), Mean” value (Donor 3 COP T-Cell Lines; T-cell line 165-C7C, 1.25 μg/mL antigen, autologous B-LCL)?
A: 273 RLU

Q: What about the “Proliferation (luminescent ATP assay), Mean” value (Donor 3 COP T-Cell Lines; T-cell line 165-C7C, 2.5 μg/mL antigen, autologous B-LCL) of the same substance?
A: 219 RLU

Q: What about the “Proliferation (luminescent ATP assay), Mean” value (Donor 3 COP T-Cell Lines; T-cell line 165-C7C, 5 μg/mL antigen, autologous B-LCL) of the same substance?
A: 273 RLU

Q: What about the “Proliferation (luminescent ATP assay), Mean” value (Donor 3 COP T-Cell Lines; T-cell line 165-C7C, 10 μg/mL antigen, autologous B-LCL) of the same substance?
A: 219 RLU

Q: What about the “Proliferation (luminescent ATP assay), Mean” value (Donor 3 COP T-Cell Lines; T-cell line 165-F3C, 1 μg/mL antigen, Day 77 of culture, 0 μg/mL 1563) of the same substance?
A: 2325

Q: And the “Proliferation (luminescent ATP assay), Mean” value (Donor 3 COP T-Cell Lines; T-cell line 165-F3C, 3 μg/mL antigen, Day 77 of culture, 0 μg/mL 1563)?
A: 2557

Q: And the “Proliferation (luminescent ATP assay), Mean” value (Donor 3 COP T-Cell Lines; T-cell line 165-F3C, 10 μg/mL antigen, Day 77 of culture, 0 μg/mL 1563)?
A: 2724

Q: And the “Proliferation (luminescent ATP assay), Mean” value (Donor 3 COP T-Cell Lines; T-cell line 165-F6C, 1.25 μg/mL antigen, Day 76 of culture, No Antigen value 517)?
A: 501

Q: What about the “Proliferation (luminescent ATP assay), Mean” value (Donor 3 COP T-Cell Lines; T-cell line 165-F6C, 2.5 μg/mL antigen, Day 76 of culture, No Antigen value 517) of the same substance?
A: 416

Q: What about the “Proliferation (luminescent ATP assay), Mean” value (Donor 3 COP T-Cell Lines; T-cell line 165-F6C, 5 μg/mL antigen, Day 76 of culture, No Antigen value 517) of the same substance?
A: 482

Q: What about the “Proliferation (luminescent ATP assay), Mean” value (Donor 3 COP T-Cell Lines; T-cell line 165-F6C, 10 μg/mL antigen, Day 76 of culture, No Antigen value 517) of the same substance?
A: 474

Q: What about the “Non-Canonical Peptide Non-Reactivity” value (Donor 4 COP T-Cell Lines; 205-1B4) of the same substance?
A: GLT 631

Q: And the “Non-Canonical Peptide Non-Reactivity” value (Donor 4 COP T-Cell Lines; 205-1C4)?
A: GLT 631

Q: What about the “Non-Canonical Peptide Non-Reactivity” value (Donor 4 COP T-Cell Lines; 205-1F4) of the same substance?
A: GLT 631

Q: And the “Non-Canonical Peptide Non-Reactivity” value (Donor 4 COP T-Cell Lines; 205-1H3)?
A: GLT 631

Q: What about the “Non-Canonical Peptide Non-Reactivity” value (Donor 4 COP T-Cell Lines; 205-1H5) of the same substance?
A: GLT 631

Q: What about the “reactivity to non-canonical GA peptides” value (Donor 4 COP T-Cell Lines; 205-1H7, after seven stimulations, 0, 1, 10, 30 μg/mL) of the same substance?
A: reactivity

Q: What about the “Non-Canonical Peptide Reactivity” value (Donor 4 COP T-Cell Lines; 205-1H7, at least one proliferation value >=2 times no antigen control) of the same substance?
A: GLT 631

Q: And the “Non-Canonical Peptide Non-Reactivity” value (Donor 4 COP T-Cell Lines; 205-1H11)?
A: GLT 631

Q: And the “Reactive T-Cell Line” value (Donor 4 COP T-Cell Lines; Donor 4 COP lines, at least a 50% increase in proliferation relative to a control after stimulation with the non-canonical GA peptide)?
A: 205-1H7 (Donor 4)

Q: And the “Nonreactive T-Cell Line” value (Donor 4 COP T-Cell Lines; Donor 4 COP lines, stimulation with the non-canonical GA peptide)?
A: 205-1B4 (Donor 4) and 205-1C4 (Donor 4) and 205-1F4 (Donor 4) and 205-1H3 (Donor 4) and 205-1H5 (Donor 4) and 205-1H11 (Donor 4)

Q: What about the “Reactivity (proliferation), Mean” value (Donor 4 COP T-Cell Lines; T-cell line 205-1B4, 1 μg/mL antigen, No Antigen 830) of the same substance?
A: 912 RLU

Q: What about the “Reactivity (proliferation), Mean” value (Donor 4 COP T-Cell Lines; T-cell line 205-1B4, 3 μg/mL antigen, No Antigen 830) of the same substance?
A: 1059 RLU

Q: What about the “Reactivity (proliferation), Mean” value (Donor 4 COP T-Cell Lines; T-cell line 205-1B4, 10 μg/mL antigen, No Antigen 830) of the same substance?
A: 1387 RLU

Q: What about the “Reactivity (proliferation), Mean” value (Donor 4 COP T-Cell Lines; T-cell line 205-1B4, 30 μg/mL antigen, No Antigen 830) of the same substance?
A: 1389 RLU

Q: What about the “Reactivity (proliferation), Mean” value (Donor 4 COP T-Cell Lines; T-cell line 205-1C4, 1 μg/mL antigen, No Antigen 4464) of the same substance?
A: 4559 RLU

Q: What about the “Reactivity (proliferation), Mean” value (Donor 4 COP T-Cell Lines; T-cell line 205-1C4, 3 μg/mL antigen, No Antigen 4464) of the same substance?
A: 4934 RLU

Q: And the “Reactivity (proliferation), Mean” value (Donor 4 COP T-Cell Lines; T-cell line 205-1C4, 10 μg/mL antigen, No Antigen 4464)?
A: 5616 RLU

Q: And the “Reactivity (proliferation), Mean” value (Donor 4 COP T-Cell Lines; T-cell line 205-1C4, 30 μg/mL antigen, No Antigen 4464)?
A: 5782 RLU

Q: What about the “Proliferation (luminescent ATP assay), Mean” value (Donor 4 COP T-Cell Lines; 1 μg/mL antigen) of the same substance?
A: 1938

Q: And the “Proliferation (luminescent ATP assay), Mean” value (Donor 4 COP T-Cell Lines; 3 μg/mL antigen)?
A: 1863

Q: And the “Proliferation (luminescent ATP assay), Mean” value (Donor 4 COP T-Cell Lines; 10 μg/mL antigen)?
A: 2504

Q: And the “Reactivity (proliferation), Mean” value (Donor 4 COP T-Cell Lines; T-cell line 205-1H5, 1 μg/mL antigen, No Antigen 749)?
A: 710 RLU

Q: What about the “Reactivity (proliferation), Mean” value (Donor 4 COP T-Cell Lines; T-cell line 205-1H5, 3 μg/mL antigen, No Antigen 749) of the same substance?
A: 885 RLU

Q: What about the “Reactivity (proliferation), Mean” value (Donor 4 COP T-Cell Lines; T-cell line 205-1H5, 10 μg/mL antigen, No Antigen 749) of the same substance?
A: 1153 RLU

Q: What about the “Reactivity (proliferation), Mean” value (Donor 4 COP T-Cell Lines; T-cell line 205-1H5, 30 μg/mL antigen, No Antigen 749) of the same substance?
A: 1294 RLU
